pIC50: −log10 of the molar value.
Tested on: 485368-065-R4-J2-PDC spheroids with HUVEC/MSC, viability
Experiment: Anticancer human tumor 485368-065-R4-J2-PDC patient-derived pancreatic carcinoma cell line growth inhibition [TAK]
Conditions: for pIC50: curve of first compound; for viability, T/C: stronger effect = lower value
Excerpt: Combinatorial screen of targeted agents with TAK-243 and ipatasertib in multi-cell type tumor spheroids
A high-throughput screen of multi-cell type tumor spheroids was designed to identify active combinations of targeted small molecules and TAK-243 or ipatasertib. Complex spheroids include a stromal component modeled by human endothelial cells (HUVEC) and fibroblasts modeled by human mesenchymal stem cells (MSCs). The concentration ranges selected for each drug and investigational agent were based upon clinically achievable concentrations if the clinical Cmax of the agent was known.
Compounds. The drugs and investigational agents: TAK-243 (785004), ipatasertib (767898), everolimus (733504), selumetinib (741078), bortezomib (756655), trametinib (758246), ixazomib (758254), vemurafenib (761431), dabrafenib (764134), sapanisertib (764658), alpelisib (765974), and copanlisib (816437), were obtained from the National Cancer Institute (NCI) Developmental Therapeutics Program Chemical Repository. The FDA-approved anticancer drug set is available from the NCI Developmental Therapeutics Program. […] The stock solutions were prepared in dimethyl sulfoxide (DMSO, Sigma-Aldrich, St. Louis, MO, cat. D2650) at 800-fold the tested concentration and stored at -70 degrees C prior to their use. All drugs and investigational agents were tested over a range starting from a high concentration at or near the clinical Cmax and decreasing in half-log increments. If the clinical Cmax for an agent had not been determined, the highest concentration tested was 10 microM.
NCI60 Cell Culture. NCI60 cell lines were obtained from the NCI Developmental Therapeutics Program Tumor Repository. For each lot of cells, the Repository performed Applied Biosystems AmpFLSTR Identifiler testing with PCR amplification to confirm consistency with the published Identifier STR profile for each cell line. Cells were kept in continuous culture for no more than 20 passages. The optimal seeding densities for each of the cell lines at each time point assessed were determined prior to performing the concentration response studies. Briefly, the NCI60 human tumor lines were grown as monolayers in RPMI 1640 medium supplemented with 10% FBS and 2 mmol/L L-glutamine.
An additional 2 lines were from the NCI60 cell line panel including melanomas, MALME-3M and SK-MEL-2. Pooled donor human umbilical vein endothelial cells (HUVEC, Lonza, cat. CC-2519) and human mesenchymal stem cells (hMSC, Lonza, cat. PT-2501) were purchased from Lonza (Walkersville, MD).
PDMR cell lines were grown in complete medium (DC medium): Dulbecco's modified Eagle's medium (DMEM)/F12 supplemented with 5% fetal bovine serum (FBS), 2 mM L-glutamine, 100 U/mL penicillin and 100 µg/ml streptomycin, 0.4 µg/ml hydrocortisone, 10 ng/ml epidermal growth factor (EGF) recombinant human protein, 24 µg/mL adenine, and 0.1 mg/mL primocin. During culture from frozen stock vials, PDMR cells were cultured in the same medium containing 10 µM Y-27632 (see Table 3). The PDCs were cultured in complete DMEM/F12 media without 10 microM Y-27632 dihydrochloride for at least two passages prior to the screen. The pooled donor HUVEC and hMSC were cultured in endothelial cell growth medium 2 (PromoCell, Heidelberg, Germany, cat. C-22011) and mesenchymal stem cell growth medium 2 (PromoCell, cat. C-28009), respectively. For all experiments, HUVEC and hMSC were used at passages </=5.
For the pre-screen, cell seeding densities were determined from a titration spanning the range from 5,000 to 313 cells per well. The mct-spheroids including 60% malignant cells, 25% HUVEC and 15% MSC dispensed as a mixture into U-bottom Ultra-Low Attachment 384-well plates (Corning, NY)
High-throughput Drug Combination Screening.
Prior to their inoculation into 384-well plates, malignant cells, HUVEC, and hMSC were removed from T flasks using TrypLE express (Thermo Fisher Scientific, cat. 12605036) and harvested by centrifugation for 5 min at 233 x g. […]
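Also: spheroids exposed to compounds for seven days before readout.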
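For viability, T/C in this document: 100% = DMSO vehicle control wells.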

CC(=O)Nc1cccc(-n2c(=O)n(C3CC3)c(=O)c3c(Nc4ccc(I)cc4F)n(C)c(=O)c(C)c32)c1 + CC(C)NCC(C(=O)N1CCN(c2ncnc3c2C(C)CC3O)CC1)c1ccc(Cl)cc1
pIC50 (second compound 0.3 µM): 8.46 | pIC50 (second compound 0.949 µM): 8.79 | pIC50 (second compound 3 µM): 8.91 | pIC50 (second compound 9.49 µM): 9.22 | pIC50 (second compound 30 µM): 9.50 | viability, T/C (second compound 0.3 µM, first compound 94.9 pM): 89.9% | viability, T/C (second compound 0.3 µM, first compound 0.0003 µM): 76.2% | viability, T/C (second compound 0.3 µM, first compound 0.000949 µM): 72.8% | viability, T/C (second compound 0.3 µM, first compound 0.003 µM): 51.8% | viability, T/C (second compound 0.3 µM, first compound 0.00949 µM): 33.5% | viability, T/C (second compound 0.3 µM, first compound 0.03 µM): 20.4% | viability, T/C (second compound 0.949 µM, first compound 94.9 pM): 94.2% | viability, T/C (second compound 0.949 µM, first compound 0.0003 µM): 92.3% | viability, T/C (second compound 0.949 µM, first compound 0.000949 µM): 61.8% | viability, T/C (second compound 0.949 µM, first compound 0.003 µM): 34.3% | viability, T/C (second compound 0.949 µM, first compound 0.00949 µM): 19.2% | viability, T/C (second compound 0.949 µM, first compound 0.03 µM): 12.7% | viability, T/C (second compound 3 µM, first compound 94.9 pM): 96.6% | viability, T/C (second compound 3 µM, first compound 0.0003 µM): 88.2% | viability, T/C (second compound 3 µM, first compound 0.000949 µM): 58.3% | viability, T/C (second compound 3 µM, first compound 0.003 µM): 22% | viability, T/C (second compound 3 µM, first compound 0.00949 µM): 12% | viability, T/C (second compound 3 µM, first compound 0.03 µM): 8.82% | viability, T/C (second compound 9.49 µM, first compound 94.9 pM): 89.8% | viability, T/C (second compound 9.49 µM, first compound 0.0003 µM): 70.1% | viability, T/C (second compound 9.49 µM, first compound 0.000949 µM): 36.3% | viability, T/C (second compound 9.49 µM, first compound 0.003 µM): 15.8% | viability, T/C (second compound 9.49 µM, first compound 0.00949 µM): 10.2% | viability, T/C (second compound 9.49 µM, first compound 0.03 µM): 7.89% | viability, T/C (second compound 30 µM, first compound 94.9 pM): 70.6% | viability, T/C (second compound 30 µM, first compound 0.0003 µM): 50% | viability, T/C (second compound 30 µM, first compound 0.000949 µM): 31.5% | viability, T/C (second compound 30 µM, first compound 0.003 µM): 13.8% | viability, T/C (second compound 30 µM, first compound 0.00949 µM): 10.2% | viability, T/C (second compound 30 µM, first compound 0.03 µM): 7.05%

CC(C)CC(NC(=O)C(Cc1ccccc1)NC(=O)c1cnccn1)B(O)O (stereo not given) + CC(C)NCC(C(=O)N1CCN(c2ncnc3c2C(C)CC3O)CC1)c1ccc(Cl)cc1
pIC50 (second compound 0.3 µM): 8.23 | pIC50 (second compound 0.949 µM): 8.23 | pIC50 (second compound 3 µM): 8.23 | pIC50 (second compound 9.49 µM): 8.29 | pIC50 (second compound 30 µM): 8.33 | viability, T/C (second compound 0.3 µM, first compound 31.6 pM): 98.2% | viability, T/C (second compound 0.3 µM, first compound 0.0001 µM): 96.9% | viability, T/C (second compound 0.3 µM, first compound 0.000316 µM): 90.6% | viability, T/C (second compound 0.3 µM, first compound 0.001 µM): 92.2% | viability, T/C (second compound 0.3 µM, first compound 0.00316 µM): 108% | viability, T/C (second compound 0.3 µM, first compound 0.01 µM): 10% | viability, T/C (second compound 0.949 µM, first compound 31.6 pM): 94.5% | viability, T/C (second compound 0.949 µM, first compound 0.0001 µM): 94.3% | viability, T/C (second compound 0.949 µM, first compound 0.000316 µM): 103% | viability, T/C (second compound 0.949 µM, first compound 0.001 µM): 98.4% | viability, T/C (second compound 0.949 µM, first compound 0.00316 µM): 102% | viability, T/C (second compound 0.949 µM, first compound 0.01 µM): 9.62% | viability, T/C (second compound 3 µM, first compound 31.6 pM): 94.3% | viability, T/C (second compound 3 µM, first compound 0.0001 µM): 101% | viability, T/C (second compound 3 µM, first compound 0.000316 µM): 98.5% | viability, T/C (second compound 3 µM, first compound 0.001 µM): 92.2% | viability, T/C (second compound 3 µM, first compound 0.00316 µM): 94.9% | viability, T/C (second compound 3 µM, first compound 0.01 µM): 12.9% | viability, T/C (second compound 9.49 µM, first compound 31.6 pM): 97% | viability, T/C (second compound 9.49 µM, first compound 0.0001 µM): 94.2% | viability, T/C (second compound 9.49 µM, first compound 0.000316 µM): 91.1% | viability, T/C (second compound 9.49 µM, first compound 0.001 µM): 95.2% | viability, T/C (second compound 9.49 µM, first compound 0.00316 µM): 79.7% | viability, T/C (second compound 9.49 µM, first compound 0.01 µM): 8.65% | viability, T/C (second compound 30 µM, first compound 31.6 pM): 78.5% | viability, T/C (second compound 30 µM, first compound 0.0001 µM): 81.9% | viability, T/C (second compound 30 µM, first compound 0.000316 µM): 77.6% | viability, T/C (second compound 30 µM, first compound 0.001 µM): 78% | viability, T/C (second compound 30 µM, first compound 0.00316 µM): 71.2% | viability, T/C (second compound 30 µM, first compound 0.01 µM): 6.97%

Reference: PubChem BioAssay AID2060355 (Molecular Pharmacology Branch, DTP, NCI, 2025)
